24 compounds from US20250115597A1, “TYK2 INHIBITORS AND COMPOSITIONS AND METHODS THEREOF” (LYNK PHARMACEUTICALS CO. LTD., priority 2021, published 2025) can be followed below.

Assay [1] addresses T1, Ba/F3-FL-TYK2-P760L cells (Homo sapiens, UniProt P29597, P760L, cells depend on it).
T1 construct: BaF3-FL-T2P760L (nM)
Briefly: Anti-proliferative assay, Ba/F3-FL-TYK2-P760L cells (Cell-Titer Glo). In kind it is cell-based. The settings on record: 72 h, read-out: BaF3-FL-T2P760L IC50. A digest of the protocol:
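Compound exposure ran 72 h at 37 °C in 5% CO2 across nine 3-fold concentrations from a 20 μM top dose, added 24 h after seeding 2000 cells/well.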

Assay [2] has as its target T2, TYK2-JH2 domain (Homo sapiens, UniProt P29597).
T2 construct: IC50 on JH2 domain activity (nM)
Briefly: Binding activity test for JH2 domain of TYK2 (Tb-antibody/tracer FRET). The procedure:
Binding Activity Test for […] Domain of JAK1 and TYK2 The compounds are prepared in DMSO for 200× top dose, then serial dilute it with 27-fold for 3 more points. Add 8 μL/well in echo source plate, echo will add 75 nL/well with 3-fold serial dilution for 11 points in assay plate. 75 nL DMSO for high control and low control. […] For low control, add 5 μL/well assay buffer. And then spin down at 1000 rpm and centrifuge for 30 seconds. After enzyme system prepared, add 5 μL of Tb-antibody solution into each wells of assay plate. Spin down at 1000 rpm and centrifuge for 30 sec. After Tb-antibody added, also add 5 μL of tracer into the assay plate. Spin down at 1000 rpm and centrifuge for 30 sec. Incubate for 60 mins at 25° C. firstly and then continue to incubate the plate at 4° C. overnight. Read by envision in FRET mode. The Luminescence value was recorded by a multi-label reader Envision (PerkinElmer).

T1 sequence (P29597 whole entry P760L): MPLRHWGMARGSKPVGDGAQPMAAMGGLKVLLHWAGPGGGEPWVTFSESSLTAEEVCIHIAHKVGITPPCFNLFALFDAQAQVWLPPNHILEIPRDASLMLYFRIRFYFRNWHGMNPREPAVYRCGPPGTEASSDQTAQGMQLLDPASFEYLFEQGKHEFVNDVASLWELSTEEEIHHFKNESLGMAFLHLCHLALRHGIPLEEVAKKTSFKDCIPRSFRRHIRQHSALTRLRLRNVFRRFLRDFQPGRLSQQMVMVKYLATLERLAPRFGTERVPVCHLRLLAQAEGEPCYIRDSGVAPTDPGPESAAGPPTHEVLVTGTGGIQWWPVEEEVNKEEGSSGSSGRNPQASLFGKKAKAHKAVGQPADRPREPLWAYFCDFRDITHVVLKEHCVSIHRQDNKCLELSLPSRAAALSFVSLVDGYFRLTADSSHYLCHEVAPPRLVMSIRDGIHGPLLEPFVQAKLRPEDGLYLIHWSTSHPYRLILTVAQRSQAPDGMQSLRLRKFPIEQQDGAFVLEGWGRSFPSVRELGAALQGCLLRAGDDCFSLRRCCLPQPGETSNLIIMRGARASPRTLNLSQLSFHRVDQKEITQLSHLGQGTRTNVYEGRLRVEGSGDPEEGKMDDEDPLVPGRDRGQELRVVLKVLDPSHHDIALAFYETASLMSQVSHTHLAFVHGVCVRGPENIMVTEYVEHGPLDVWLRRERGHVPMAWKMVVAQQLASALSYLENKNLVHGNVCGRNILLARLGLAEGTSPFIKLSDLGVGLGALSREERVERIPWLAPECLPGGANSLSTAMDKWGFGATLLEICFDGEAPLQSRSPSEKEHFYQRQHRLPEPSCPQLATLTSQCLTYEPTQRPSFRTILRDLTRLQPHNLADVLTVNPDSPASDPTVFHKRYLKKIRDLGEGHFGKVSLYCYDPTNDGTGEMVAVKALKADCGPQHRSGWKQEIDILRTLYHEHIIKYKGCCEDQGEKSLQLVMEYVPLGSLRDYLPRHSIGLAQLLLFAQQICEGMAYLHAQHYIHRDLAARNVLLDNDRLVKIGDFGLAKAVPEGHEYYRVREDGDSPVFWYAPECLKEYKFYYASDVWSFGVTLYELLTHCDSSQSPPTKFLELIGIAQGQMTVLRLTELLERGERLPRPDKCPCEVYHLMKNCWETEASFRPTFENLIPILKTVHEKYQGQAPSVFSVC
T2 sequence (P29597 589-875 limits assumed): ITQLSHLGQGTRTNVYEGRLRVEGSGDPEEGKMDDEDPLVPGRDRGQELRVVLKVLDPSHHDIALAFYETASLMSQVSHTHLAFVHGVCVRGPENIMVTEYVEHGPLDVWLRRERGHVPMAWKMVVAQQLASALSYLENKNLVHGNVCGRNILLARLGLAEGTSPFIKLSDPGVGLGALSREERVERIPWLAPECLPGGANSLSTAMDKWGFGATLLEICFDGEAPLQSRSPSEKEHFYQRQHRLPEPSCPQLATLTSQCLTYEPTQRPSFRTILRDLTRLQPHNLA

On to `[2H]C([2H])([2H])NC(=O)c1cnc(NC(=O)C2CC2)cc1Nc1cn(C)c2ccn(C(C)C(F)(F)F)c(=O)c12` (single isomer, unassigned) [Example 190A, (R*)-6-(Cyclopropanecarboxamido)-N-(methyl-d3)-4-((1-methyl-4-oxo-5-(1,1,1-trifluoropropan-2-yl)-4,5-dihydro-1H-pyrrolo[3,2-c]pyridin-3-yl)amino)nicotinamide], for which the GI50 in assay [1] was 113 nM. This compound also yielded an IC50 in assay [2] of 0.622 nM.
For `[2H]C([2H])([2H])NC(=O)c1cnc(NC(=O)C2CC2)cc1Nc1ccn2cnc(CC)c2c1OC` [Example 57, 6-(Cyclopropanecarboxamido)-4-((1-ethyl-8-methoxyimidazo[1,5-a]pyridin-7-yl)amino)-N-(methyl-d3)nicotinamide], in that order: over 5000 nM and 5.21 nM.
For `COC(=O)c1cnc(NC(=O)C2CC2)cc1Nc1cn(C)c2ccn(C)c(=O)c12` [Example 116, Methyl 6-(cyclopropanecarboxamido)-4-((1,5-dimethyl-4-oxo-4,5-dihydro-1H-pyrrolo[3,2-c]pyridin-3-yl)amino)nicotinate], in that order: 102 nM and 3.35 nM.
Taken in the same sequence, the figures for `[2H]C([2H])([2H])NC(=O)c1cnc(NC(=O)C2CC2)nc1Nc1ccc2cnn(CC)c2c1OC` [Example 135, 2-(Cyclopropanecarboxamido)-4-((1-ethyl-7-methoxy-1H-indazol-6-yl)amino)-N-(methyl-d3)pyrimidine-5-carboxamide] were 128 nM and 1.46 nM.
On to `[2H]C([2H])([2H])NC(=O)c1nnc(NC(=O)C2CC2)cc1Nc1ccc2cnn(CC)c2c1OC` [Example 144, 6-(Cyclopropanecarboxamido)-4-((1-ethyl-7-methoxy-1H-indazol-6-yl)amino)-N-(methyl-d3)pyridazine-3-carboxamide], for which the GI50 in assay [1] turned out to be 344 nM. Also, the IC50 in assay [2] is 1.29 nM.
Taken in the same sequence, the figures for `CCn1ncc2ccc(Nc3cc(NC(=O)C4CC4)ncc3C(=O)OC)c(OC(F)(F)F)c21` [Example 148, Methyl 6-(cyclopropanecarboxamido)-4-((1-ethyl-7-(trifluoromethoxy)-1H-indazol-6-yl)amino)nicotinate] were 242 nM and over 298 nM.
Taken in the same sequence, the figures for `CCc1nn(C)c2ccc(Nc3cc(NC(=O)C4CC4)ncc3C(=O)OC)c(OC)c12` [Example 149, Methyl 6-(cyclopropanecarboxamido)-4-((3-ethyl-4-methoxy-1-methyl-1H-indazol-5-yl)amino)nicotinate] were 732 nM and 62.8 nM.
Regarding `[2H]C([2H])([2H])NC(=O)c1cnc(NC(=O)C2CC2)cc1Nc1ccc2c(c(CC)nn2C)c1OC` [Example 150, 6-(Cyclopropanecarboxamido)-4-((3-ethyl-4-methoxy-1-methyl-1H-indazol-5-yl)amino)-N-(methyl-d3)nicotinamide], in assay [1], the GI50 is 231 nM. Also, the IC50 in assay [2] was 1.87 nM.
Take `[2H]C([2H])([2H])NC(=O)c1cnc(NC(=O)C2CC2)cc1Nc1ccc2nc(C)n(CC)c2c1OC` [Example 168, 6-(Cyclopropanecarboxamido)-4-((1-ethyl-7-methoxy-2-methyl-1H-benzo[d]imidazol-6-yl)amino)-N-(methyl-d3)nicotinamide]: the GI50 in assay [1] worked out at 728 nM. The compound further displayed an IC50 in assay [2] of 2.15 nM.
For `[2H]C([2H])([2H])NC(=O)c1cnc(NC(=O)C2CC2)cc1Nc1csc2c(Cl)cn(CC)c(=O)c12` [Example 173, 4-((7-Chloro-5-ethyl-4-oxo-4,5-dihydrothieno[3,2-c]pyridin-3-yl)amino)-6-(cyclopropanecarboxamido)-N-(methyl-d3)nicotinamide], in that order: 86.5 nM and 0.817 nM.
For `[2H]C([2H])([2H])NC(=O)c1cnc(NC(=O)C2CC2)cc1Nc1cn(C)c2ncn(CC(F)F)c(=O)c12` [Example 194, 6-(Cyclopropanecarboxamido)-4-((3-(2,2-difluoroethyl)-7-methyl-4-oxo-4,7-dihydro-3H-pyrrolo[2,3-d]pyrimidin-5-yl)amino)-N-(methyl-d3)nicotinamide], in that order: 562 nM and 0.756 nM.
Taken in the same sequence, the figures for `CCN1C(=O)Cc2ccc(Nc3cc(NC(=O)C4CC4)ncc3C(=O)NC)c(OC)c21` [Example 205, 6-(Cyclopropanecarboxamido)-4-((1-ethyl-7-methoxy-2-oxoindolin-6-yl)amino)-N-methylnicotinamide] were 252 nM and 1.3 nM.
As to `[2H]C([2H])([2H])NC(=O)c1cnc(NC(=O)C2CC2)cc1Nc1cn(C2CC2)c2ncn(CC)c(=O)c12` [Example 211], in assay [1], the GI50 is 174 nM. In addition, the IC50 in assay [2] worked out at 0.71 nM.
For `[2H]C([2H])([2H])NC(=O)c1cnc(NC(=O)C2CC2)cc1Nc1cn(CC)c2ncn(CC(F)(F)F)c(=O)c12` [Example 212, 6-(Cyclopropanecarboxamido)-4-((7-ethyl-4-oxo-3-(2,2,2-trifluoroethyl)-4,7-dihydro-3H-pyrrolo[2,3-d]pyrimidin-5-yl)amino)-N-(methyl-d3)nicotinamide], in that order: 244 nM and 0.601 nM.
For `[2H]C([2H])([2H])NC(=O)c1cnc(NC(=O)C2CC2)cc1Nc1cn(CC(F)(F)F)c2ncn(CC)c(=O)c12` [Example 214, 6-(Cyclopropanecarboxamido)-4-((3-ethyl-4-oxo-7-(2,2,2-trifluoroethyl)-4,7-dihydro-3H-pyrrolo[2,3-d]pyrimidin-5-yl)amino)-N-(methyl-d3)nicotinamide], in that order: 217 nM and 0.557 nM.
Taken in the same sequence, the figures for `[2H]C([2H])([2H])NC(=O)c1cnc(NC(=O)C2CC2)cc1Nc1ccn2ncc(CCC)c2c1OC` [Example 215, 6-(Cyclopropanecarboxamido)-4-((4-methoxy-3-propylpyrazolo[1,5-a]pyridin-5-yl)amino)-N-(methyl-d3)nicotinamide] were 159 nM and 0.532 nM.
Take `[2H]C([2H])([2H])NC(=O)c1cnc(NC(=O)C2CC2)cc1Nc1cn(C)c2ncn(C(C)C(F)(F)F)c(=O)c12` (stereo not drawn) [Example 217, 6-(Cyclopropanecarboxamido)-N-(methyl-d3)-4-((7-methyl-4-oxo-3-(1,1,1-trifluoropropan-2-yl)-4,7-dihydro-3H-pyrrolo[2,3-d]pyrimidin-5-yl)amino)nicotinamide]: the GI50 in assay [1] turned out to be 205 nM. In assay [2], the IC50 was 1.31 nM.
As for `[2H]C([2H])([2H])NC(=O)c1nnc(NC(=O)C2CC2)cc1Nc1nn(CC)c2ccn(CC(F)(F)F)c(=O)c12` [Example 218, 6-(Cyclopropanecarboxamido)-4-((1-ethyl-4-oxo-5-(2,2,2-trifluoroethyl)-4,5-dihydro-1H-pyrazolo[4,3-c]pyridin-3-yl)amino)-N-(methyl-d3)pyridazine-3-carboxamide], the GI50 in assay [1] worked out at 68.6 nM. The IC50 in assay [2] was 0.343 nM.
For `[2H]C([2H])([2H])NC(=O)c1cnc(NC(=O)C2CC2)cc1Nc1ccc2cnc(CC)n2c1OC` [Example 227, 6-(Cyclopropanecarboxamido)-4-((3-ethyl-5-methoxyimidazo[1,5-a]pyridin-6-yl)amino)-N-(methyl-d3)nicotinamide], in that order: over 5000 nM and 7.53 nM.
With `[2H]C([2H])([2H])NC(=O)c1cnc(NC(=O)C2CC2)cc1Nc1ccc2nn(C)c(CC)c2c1OC` [Example 232, 6-(Cyclopropanecarboxamido)-4-((3-ethyl-4-methoxy-2-methyl-2H-indazol-5-yl)amino)-N-(methyl-d3)nicotinamide], in assay [1], the GI50 was 1700 nM. The same compound showed an IC50 in assay [2] of 1.58 nM.
Taken in the same sequence, the figures for `[2H]C([2H])([2H])NC(=O)c1cnc(NC(=O)C2CC2)cc1Nc1cnc2cnn(CC)c2c1OC` [Example 265, 6-(Cyclopropanecarboxamido)-4-((1-ethyl-7-methoxy-1H-pyrazolo[4,3-b]pyridin-6-yl)amino)-N-(methyl-d3)nicotinamide] were over 5000 nM and 69.2 nM.
Taken in the same sequence, the figures for `[2H]C([2H])([2H])NC(=O)c1cnc(NC(=O)C(F)(F)F)cc1Nc1ccc2cnn(CC)c2c1OC` [Example 271, 4-((1-Ethyl-7-methoxy-1H-indazol-6-yl)amino)-N-(methyl-d3)-6-(2,2,2-trifluoroacetamido)nicotinamide] were 2610 nM and 25.6 nM.
Taken in the same sequence, the figures for `CCn1ncc2ccc(Nc3cc(NC(=O)C4CC4)ncc3Cl)c(OC)c21` [Example 272, N-(5-chloro-4-((1-ethyl-7-methoxy-1H-indazol-6-yl)amino)pyridin-2-yl)cyclopropanecarboxamide] were 4760 nM and 138 nM.
For the compound `[2H]C([2H])([2H])NC(=O)c1cnc(NC(=O)C2CC2)cc1Nc1ccc2cnn(CCN(C)C)c2c1OC` [Example 274, 6-(Cyclopropanecarboxamido)-4-((1-(2-(dimethylamino)ethyl)-7-methoxy-1H-indazol-6-yl)amino)-N-(methyl-d3)nicotinamide], the GI50 in assay [1] is over 5000 nM. Besides, the IC50 in assay [2] amounted to 34.4 nM.
